Data reported in patent US20200197335A1, “CANCER THERAPEUTIC” (priority 2017, published 2020).
Where two headings read alike, the source gives them in different places.

Assays:
[1] = tested on: Stage IV Adenocarcinoma of Lung; assay: Treatment of Patient X with Stage IV adenocarcinoma of lung, followed by repeat PET CT; type: in vivo, human
Method: Commenced RAS modulation: • Aspirin: 300mg once daily • Start Date: 20 Jun. 2015
2015 • + Cilazapril: 2.5 mg once daily • Start Date: 26 Nov. 2015
2015 • + Doxycycline: 100mg once daily • Start Date: 20 Feb. 2016

[2] = cited from earlier work
Squamous Cell Carcinoma = conditions: propranolol 160 mg daily with curcumin and celebrex, five weeks; reduced to 40 mg daily
[3] = piperine included in the curcumin formulation; cited from earlier work
[4] = tested on: several tumoral cell lines; conditions: cited from earlier work

C#Cc1cccc(Nc2ncnc3cc(OCCOC)c(OCCOC)cc23)c1 [Tarceva]
Repeat PET CT ([1]; 1 Apr. 2015, on Tarceva): new right para-aortic node with high avidity
Repeat PET CTs ([1]; 12 Jul. 2011 to 5 Nov. 2013, Tarceva 150mg once daily from 2 Jun. 2011): remission of the cancer

CN(C)C(=N)N=C(N)N [Metformin, N,N-dimethylimidodicarbonimidic diamide]
Mild gastrointestinal symptoms (diarrhoea, nausea, vomiting, loss of appetite), frequency ([2]; especially during the initial treatment period): > 1/10
Metallic taste, frequency ([2]; worded 'Common' within the Very Rare paragraph): 3%

CCCCc1nc(Cl)c(CO)n1Cc1ccc(-c2ccccc2-c2nn[nH]n2)cc1 [Losartan]
Common side effects ([2]; in vivo): Cold or flu symptoms such as stuffy nose, sneezing, sore throat, fever, muscle cramps, pain in the legs or back, stomach pain, diarrhoea, headache, dizziness, tired feeling, sleep problems (insomnia)

CC(C)NCC(O)COc1cccc2ccccc12 (racemic) [Propranolol, (RS)-1-(1-methylethylamino)-3-(1-naphthyloxy)propan-2-ol]
Adverse effects leading to dose reduction (Squamous Cell Carcinoma): feeling ‘weak in the legs’ and had two episodes of falls
Uncommon side effects ([2]; Uncommon (0.1-0.9%)): Gastrointestinal disturbance, such as nausea, vomiting, diarrhoea

CCOC(=O)[C@H](CCc1ccccc1)N[C@H]1CCCN2CCC[C@@H](C(=O)O)N2C1=O [Cilazapril, (4S,7S)-7-[[(2S)-1-Ethoxy-1-oxo-4-phenylbutan-2-yl]amino]-6-oxo-1,2,3,4,7,8,9,10-octahydropyridazino[1,2-a]diazepine-4-carboxylic acid]
Common side effects ([2]; in vivo): Fatigue, hypotension, dyspepsia, nausea and other gastrointestinal disturbances, headache, rash and coughing
Rare side effects ([2]; in vivo): Skin rashes including erythema multiforme and toxic epidermal necrolysis may occur. Photosenstivity, alopecia and other hypersensitivity reactions
Uncommon side effects ([2]; in vivo): Tachycardia, palpitations and chest pain

O=C(C=CC=Cc1ccc2c(c1)OCO2)N1CCCCC1 [piperine, 1-[5-(1,3-Benzodioxol-5-yl)-1-oxo-2,4-pentadienyl]piperidine]
Effect on bioavailability of Curcumin [3]: increases the bioavailability of Curcumin

CC(=O)Oc1ccccc1C(=O)O [Aspirin, acetylsalicylic acid]
Repeat PET CT ([1]; 28 Jul. 2015, Aspirin 300mg once daily from 20 Jun. 2015): static appearance with low levels of activity remaining at both the primary and left lung metastasis sites
Common side effects ([2]; in vivo): Increased bleeding tendencies, dyspepsia
Rare side effects ([2]; in vivo): Thrombocytopenia, agranulocytosis, aplastic anaemia, hypersensitivity reactions, angio-oedema, allergic oedema, anaphylactic reactions including shock
Uncommon side effects ([2]; in vivo): Urticaria, rhinitis, dyspnoea

[Pt(dmba)(aza-N1)(dmso)] complex 1
IC50 relative to cisplatin [4]: lower IC50 than cisplatin

Cc1ccc(-c2cc(C(F)(F)F)nn2-c2ccc(S(N)(=O)=O)cc2)cc1 [Celecoxib, 4-[5-(4-methylphenyl)-3-(trifluoromethyl)pyrazol-1-yl]benzenesulfonamide]
Diarrhoea, frequency ([2]; listed as common): 4-10%
Headache, frequency ([2]; listed as common): 10-15%
Hypertension, frequency ([2]; listed as common): 2-12%
Nausea, frequency ([2]; listed as common): 3-7%
Gastrointestinal haemorrhage, frequency ([2]; listed as serious): less than 0.1%
Gastrointestinal perforation, frequency ([2]; listed as serious): less than 0.1%
Thrombosis, frequency ([2]; listed as serious): 1.2%
